Results published in patent US9434735B2, “Amorphous form of 4-((4-(cyclopentyloxy)-5-(2-methylbenzo[d]oxazol-6-yl)-7h-pyrrolo[2,3-d]pyrimidin-2-yl)amino)-3-methoxy-n-methylbenzamide, compositions thereof and methods of their use” (Signal Pharmaceuticals, LLC, priority 2014, dated 2016).

Tests used:
Type in all cases: physicochemical
[1] = Solubility of spray-dried amorphous form in ethanol; conditions: amorphous form obtained by spray-drying
Procedure: An amorphous form of Compound 1 was obtained from a spray-drying process of Compound 1 as depicted in FIG. 5. The spray-drying process comprised: (1) mixing Compound 1 with methanol at 25° C. to yield a suspension; (2) heating to 121° C.; (3) spray-drying under the conditions in Table 1 or Table 2 to yield an amorphous solid form; and (4) collecting the resulting solids. Alternatively, the spray drying process comprised: (1) mixing Compound 1 with acetone to yield a solution; (2) spray-drying under the conditions in Table 3 to yield an amorphous solid form; and (3) collecting the resulting solids.

[2] = Stability study of the amorphous form (HPLC purity, XRPD); conditions: over three months; HPLC purity (FIG. 6), XRPD (FIG. 7)
Procedure: FIG. 6 depicts a stability study of the amorphous form based on its HPLC purity over 3 months. FIG. 7 depicts a stability study of the amorphous form based on its XRPD over 3 months. Solid samples were analyzed by XRPD. XRPD analysis was conducted on a PANalytical Empyrean or a Thermo ARL X'TRA X-ray powder diffractometer using Cu Kα radiation at 1.54 Å.

[3] = Dissolution of amorphous form in reconstitution formulations

CNC(=O)c1ccc(Nc2nc(OC3CCCC3)c3c(-c4ccc5nc(C)oc5c4)c[nH]c3n2)c(OC)c1 [amorphous Compound 1, 4-((4-(cyclopentyloxy)-5-(2-methylbenzo[d]oxazol-6-yl)-7H-pyrrolo[2,3-d]pyrimidin-2-yl)amino)-3-methoxy-N-methylbenzamide]
Solubility in ethanol [1]: readily soluble
Stability (HPLC purity and XRPD) [2]: chemically and physically stable
Dissolution Time ([3]; 17 mg amorphous Compound 1, 0.105 g EtOH, 0.656 g PEG-300, 0.239 g Saline): 1 min
Dissolution Time ([3]; #1 4.6 mL EtOH added to 700 mg amorphous Compound 1, #2 26.3 mL (25.1:1.2) PEG-300:Ethanol, #3 10.3 mL Saline): 1 min
Dissolution Time ([3]; #1 PEG-300/EtOH, #2 Saline): 9 min
